# Patent US11058700B2, “Macrocyclic lactones and uses thereof as modulators of purinergic receptors” (City of Hope, priority 2015, dated 2021)
# System: 4T1.2 cancer cells
# Assay: Synergy between Ivermectin and ROS (CompuSyn CI)
# Format: cell-based, mouse
# Conditions: for CompuSyn CI values: 4T1.2, 24 h/48 h
# Protocol: FIGS. 2A-2C. Role of NADPH oxidases-generated ROS. […] 4T1.2 cells were labeled with a ROS detection probe and treated for 1 h with 32 μM Ivermectin in the presence of 1 mM EDTA, 5mM NAC, 5 μM DPI, 2500 μunits/ml Apyrase, 3 mM ATP, and 10 μM KN-62. […] Triangles (▴) indicate significant antagonism CI>1.0. […] 4T1.2 cancer cells were irradiated (10-20 kRad) or treated with H2O2 (10-1000 μM), PTX (0.1-1 μM), or DOX (1-4 μM) and incubated with Ivermectin for 24 h/48 h. Circles (●) indicate significant synergy CI<1.0, see Table 1. Asterisk (*) indicates p<0.05 relative to untreated or Ivermectin alone controls, respectively.
# Cell viability. Cancer cells were plated on 96 well flat-bottom plates and allowed to attach overnight. Cells were then pre-incubated with drugs for 1 h and treated with Ivermectin for 4 h. In the case of 24 h and 48 h incubations the cells, Ivermectin and drugs were plated together. […] Following treatment the plates were washed once with PBS and cell viability was measured using the acid phosphatase assay. Briefly, cells were incubated for 1h at 37° C. in 100 μL assay buffer (0.16 M sodium acetate, 0.1% Triton-X-100, supplemented with 4-Nitrophenyl phosphate disodium salt hexahydrate, Sigma Aldrich, at 0.00263 g/ml). Reaction was stopped using 10 μL of 1N sodium hydroxide. Absorption at 405 nm was measured within 10 min using a multi-well plate reader. Mode of cell death and viability of cells in suspension was evaluated using flow cytometry. Briefly, cancer cells were pre-incubated with drugs for 30 min to 1 h, as indicated, treated with Ivermectin for 4 h in 5 ml FACS tubes , washed twice in PBS and stained with PE-conjugated Annexin V and 7AAD (1 μl per 100 μl/200,000 cancer cells) for 15 min.
smiles,measurement,setting,value
CC[C@H](C)[C@H]1O[C@]2(CC[C@@H]1C)C[C@@H]1C[C@@H](C/C=C(\C)[C@@H](O[C@H]3C[C@H](OC)[C@@H](O[C@H]4C[C@H](OC)[C@@H](O)[C@H](C)O4)[C@H](C)O3)[C@@H](C)/C=C/C=C3\CO[C@@H]4[C@H](O)C(C)=C[C@@H](C(=O)O1)[C@]34O)O2 [Ivermectin],"synergy with irradiation, H2O2-generated ROS, doxorubicin and paclitaxel",4T1.2 cells,synergistic
same,CompuSyn CI values,kRad 15 + Ivermectin 4,.16
same,CompuSyn CI values,kRad 15 + Ivermectin 8,.75
same,CompuSyn CI values,kRad 20 + Ivermectin 4,.94
same,CompuSyn CI values,kRad 20 + Ivermectin 8,.63
